Key:
[1] = system: apo-b gene mRNA in human liver cancer-derived cell line HepG2; assay: Expression ratio of apo-b mRNA after introduction of preparations into HepG2 cells; assay type: cell-based; settings: preparation with apo-b siRNA, nucleic acid 1 to 30 nM, 24 hours, FIG. 1
Source text: Each of the preparations obtained in Example 9 (the compositions containing any of Compounds I-1, and I-3 to I-5, and the nucleic acid) and the preparations obtained in Comparative Example 1 (the compositions containing any of DLin-KC2-DMA and Compounds VII-1 to VII-3, and the nucleic acid) was introduced into cells of a human liver cancer-derived cell line HepG2 (HB-8065) by the following method.
Each preparation diluted with Opti-MEM (GIBCO Co., Ltd., 31985) so that the final concentration of the nucleic acid was 1 to 30 nM was dispensed in a 96-well culture plate at 20 μL/well. […]
By using the obtained cDNA as a template and also using a universal probe library (Roche Applied Science, Inc., 04683633001) as the probe and ABI7900HT Fast (manufactured by ABI, Inc.), a PCR reaction was performed according to the method described in the protocol attached thereto, so that the apo-b gene and D-glyceraldehyde-3-phosphate dehydrogenase (hereinafter, represented by “gapdh”) gene, which is a constitutively expressed gene, were subjected to the PCR reaction. Then, the amount of the amplified mRNA was measured for each gene, and aquasi-quantitative value of the apo-b mRNA was calculated using the amount of the amplified gapdh mRNA as the internal control. […]

[2] = Average particle diameter of the lipid nanoparticles in each preparation (Zetasizer Nano ZS); assay type: physicochemical
Source text: Each sample was weighed so that the ratio of each of Compounds I-1 to I-5/1,2-dimyristoyl-sn-glycero-3-phosphoethanolamine-N-(methoxy(polyethylene glycol)-2000) sodium salt (PEG-DMPE Na, N-(carbonylmethoxypolyethylene glycol 2000)-1,2-dimyristoyl-sn-glycero-3-phosphoethanolamine sodium salt, manufactured by NOF Corporation)/disteazoylphosphatidyl choline (DSPC, 1,2-distearoyl-sn-glycero-3-phosphocholine, manufactured by NOF Corporation)/choiestercl (manufactured by NOF Corporation)=8.947/1.078/5.707/13.698 mmol/L, and dissolved in 90 vol % ethanol, whereby a solution containing the constituent components of a lipid membrane was prepared. Separately, apo-b siRNA in distilled water (24 mg/mL) was diluted with a Tris-EDTA buffer solution (200 mM Tris-HCl, 20 mM EDTA, manufactured by Invitrogen Co., Ltd.) and a 20 mM citric acid buffer solution (pH 5.0), whereby a 1.5 mg/mL apo-b siRNA aqueous solution (2 mM Tris-EDTA buffer solution, 20 mM citric acid buffer solution, pH 5.0) was prepared.
The obtained lipid solution was heated to 37° C., and a 500 μL portion was transferred to a container for preparing a preparation. The obtained apo-b siRNA aqueous solution (500 μL) was then added thereto while stirring. Then, a 20 mM citric acid buffer solution (containing 300 mM NaCl, pH 6.0, 1000 μL) was added to the obtained lipid nucleic acid mixed suspension (1000 μL) while stirring, and further, DPBS (manufactured by Invitrogen Co., Ltd., 3310 μL) was added dropwise thereto, whereby a crude preparation was obtained. The obtained crude preparation was concentrated by using Amicon Ultra (manufactured by Millipore Co., Ltd.), and further, the solvent was replaced with DPBS, and the resulting mixture was filtered through a 0.2-μm filter (manufactured by Toyo Roshi Kaisha, Ltd.) in a laminar flow cabinet. Further, the siRNA concentration in the obtained preparation was measured, and the preparation was diluted with DPBS so that the siRNA concentration was 0.3 mg/mL, whereby preparations (compositions containing any of Compounds I-1 to I-5, and the nucleic acid) were obtained.
The average particle diameter of the lipid nanoparticles in each preparation was measured using a particle diameter measurement device (Zetasizer Nano ZS, manufactured by Malvern).
Preparations were obtained in the same manner as in Example 9 except that Compounds I-1 to I-5 were changed to DLin-KC2-DMA synthesized by a modified method of the method described in WO2010/042877 and the compounds obtained in Reference Examples 5 to 7 (Compounds VII-1 to VII-3).
The average particle diameter of the lipid nanoparticles in each preparation was measured using a particle diameter measurement device.
Each sample was weighed so that the ratio of Compound I-6/PEG-DMPE Na (manufactured by NOF Corporation)/DSPC (manufactured by NOF Corporation)/cholesterol (manufactured by NOF Corporation)=3.532/0.270/1.156/2.401 mmol/L, and dissolved in 100 volt ethanol, whereby a solution containing the constituent components of a lipid membrane was prepared.
The obtained lipid solution was heated to 37° C., and an 800 μL portion was transferred to a container for preparing a preparation. The obtained f7 siRNA aqueous solution (800 μL) was then added thereto while stirring. Then, a 20 mM citric acid buffer solution (containing 300 mM NaCl, pH 6.0, 1600 μL) was added to the obtained lipid nucleic acid mixed suspension (1600 μL) while stirring, and further, DPBS (manufactured by Invitrogen Co., Ltd., […]) was added dropwise thereto, whereby a crude preparation was obtained. The obtained crude preparation was concentrated by using Amicon Ultra (manufactured by Millipore Co., Ltd.), and further, the solvent was replaced with DPBS, and the resulting mixture was filtered through a 0.45-μm filter (manufactured by Toyo Roshi Kaisha, Ltd.) in a laminar flow cabinet. […]

Factor VII = assay: In vivo drug efficacy: Factor VII protein level in plasma of mice after intravenous f7 siRNA preparations; settings: Balb/c mice, 0.3 or 0.1 mg/kg in terms of siRNA, 48 hours after administration, f7 siRNA preparation, FIG. 4
Description: Each of the preparations obtained in Examples 10 and 11 (the compositions containing Compound I-6, I-1, I-7, or I-8, and the nucleic acid) was tested for evaluating the in vivo drug efficacy according to the following method. Incidentally, each preparation was used after it was diluted in accordance with the test.
After mice (Balb/c, obtained from CLEA Japan, Inc.) were housed and acclimated, each preparation was intravenously administered to mice at a dose of 0.3 or 0.1 mg/kg in terms of siRNA concentration. At 48 hours after the administration, blood was collected, and the collected blood was centrifuged at 8000 rpm for 8 minutes at 4° C. using a high speed refrigerated microcentrifuge (TOMY MX305, manufactured by Tomy Seiko Co., Ltd.). The Factor VII protein level in the thus obtained plasma sample was determined as follows. A BIOPHEN VII Kit (Cat. No. A221304, manufactured by ANIARA Company) was used, and according to the method described in the protocol attached to the kit, the absorbance was measured in a standard solution and in the plasma sample using ARVO (405 nm). On the basis of the obtained absorbance, a calibration curve was prepared, and the Factor VII protein level in the plasma was calculated. Incidentally, the number of mice in each group was set to 3.

[3] = preparations of Comparative Example 1, made as in Example 9, with apo-b siRNA
[4] = preparations of Examples 10 and 11: cationic lipid/PEG-DMPE Na/DSPC/cholesterol with f7 siRNA
[5] = preparations of Example 9: cationic lipid/PEG-DMPE Na/DSPC/cholesterol with apo-b siRNA

Row | SMILES | Particle diameter of Preparation obtained [2, 3] [nm] | Particle diameter of Preparation obtained [2, 4] [nm] | Particle diameter of Preparation obtained [2, 5] [nm] | Factor VII protein level in the plasma (expression of the Factor VII gene) (Factor VII) | also measured
1 | CCCCC/C=C\C/C=C\CCCCCCCCN(CCCCCCCC/C=C\C/C=C\CCCCC)C(=O)OCCCN1CCCCC1 [Compound I-7, 3-(Piperidin-1-yl)propyl di((9Z,12Z)-octadeca-9,12-dienyl)carbamate] |  | 131.8 |  | strongly suppressed | 
2 | CCCCC/C=C\C/C=C\CCCCCCCCN(CCCCCCCC/C=C\C/C=C\CCCCC)C(=O)OCCCN1CCCC1 [Compound I-8, 3-(Pyrrolidin-1-yl)propyl di((9Z,12Z)-octadeca-9,2-dienyl)carbamate] |  | 121.6 |  | strongly suppressed | 
3 | CCCCCCCC/C=C\CCCCCCCCN(CCCCCCCC/C=C\CCCCCCCC)C(=O)OCCCN(C)C [Compound I-2, 3-(Dimethylamino)propyl di((Z)-octadec-9-enyl)carbamate] |  |  | 135.8 |  | 
4 | CCCCCC/C=C\CCCCCCCCN(CCCCCCCC/C=C\CCCCCC)C(=O)OCCCN(C)C [Compound I-3, 3-(Dimethylamino)propyl di((Z)-hexadec-9-enyl)carbamate] |  |  | 150.0 |  | 
5 | CCCCC/C=C\C/C=C\CCCCCCCCN(CCCCCCCC/C=C\C/C=C\CCCCC)C(=O)OCCC1CCCN1C (stereo not drawn) [Compound I-6, 2-(1-Methylpyrrolidin-2-yl)ethyl di((9Z,12Z)-octadeca-9,12-dienyl)carbamate] |  | 121.1 |  | strongly suppressed | 
6 | CCCCC/C=C\C/C=C\CCCCCCCCCCN(CCCCCCCCCC/C=C\C/C=C\CCCCC)C(=O)OCCCN(C)C [Compound I-4, 3-(Dimethylamino)propyl di((11Z,14Z)-icosa-11,14-dienyl)carbamate] |  |  | 159.0 |  | 
7 | CCCCC/C=C\C/C=C\CCCCCCCCN(CCCCCCCC/C=C\C/C=C\CCCCC)C(=O)OCCN(C)C [Compound I-5, 2-(Dimethylamino)ethyl di((9Z,12Z)-octadeca-9,2-dienyl)carbamate] |  |  | 137.0 |  | 
8 | CCCCC/C=C\C/C=C\CCCCCCCCC1(CCCCCCCC/C=C\C/C=C\CCCCC)OCC(CCN(C)C)O1 (stereo not drawn) [DLin-KC2-DMA, 2,2-dilinoleyl-4-(2-dimethylaminoethyl)-[1,3]-dioxolane, reference compound] | 159.8 |  |  |  | 
9 | CCCCC/C=C\C/C=C\CCCCCCCCN(CCCCCCCC/C=C\C/C=C\CCCCC)C(=O)OCCCN(C)C [Compound I-1, 3-(Dimethylamino)propyl di((9Z,12Z)-octadeca-9,12-dienyl)carbamate] |  | 118.9 | 151.8 | strongly suppressed | 

Second part, led by results:

Row | Particle diameter of Preparation obtained [2, 3] [nm] | Particle diameter of Preparation obtained [2, 4] [nm] | Particle diameter of Preparation obtained [2, 5] [nm] | SMILES | Factor VII protein level in the plasma (expression of the Factor VII gene) (Factor VII) | also measured
10 | 160.1 |  |  | CCCCC/C=C\C/C=C\CCCCCCCCN(CCCCCCCC/C=C\C/C=C\CCCCC)C(=O)CCCCN(C)C [Compound VII-2, 5-(Dimethylamino)-N,N-di((9Z,12Z)-octadeca-9,12-dienyl)pentanamide, reference compound] |  | expression of the apo-b gene mRNA [1]: did not suppress the expression of the apo-b gene mRNA
11 | 177.7 |  |  | CCCCC/C=C\C/C=C\CCCCCCCCN(CCCCCCCC/C=C\C/C=C\CCCCC)C(=O)OCCCN [Compound VII-3, 3-Aminopropyl di((9Z,12Z)-octadeca-9,12-dienyl)carbamate, reference compound] |  | 
12 | 176.6 |  |  | CCCCC/C=C\C/C=C\CCCCCCCCN(CCCCCCCC/C=C\C/C=C\CCCCC)C(=O)CCCCN [Compound VII-1, 5-Amino-N,N-di((9Z,12Z)-octadeca-9,12-dienyl)pentanamide, reference compound] |  | 
